No end group written: not given here.
What was measured:
[1] = system: Xanthomonas axonopodis pv. glycines; settings: for MIC, Xanthomonas axonopodis pv. glycines: serial 2-fold dilutions, 96-well, inoculum ~10^5 CFU/mL, highest 256 µg/mL, 48 h, OD600, NDA = Non-detectable activity; for 1/(log(MICs (mM)), Xanthomonas axonopodis pv. glycines): from MIC, 0 where no detectable activity
Description: MICs were determined using the M7-A6 protocol from the Clinical Laboratory Standards Institute (CLSI). […] Initial bacterium inoculum of ∼10^5 colony forming units/mL were transferred, along with serial 2-fold dilutions of each peptide to 96-well plates and incubated for 12 h. […] For each peptide concentration, optical density (OD600) readings were subtracted from that of the growth medium and divided by the positive control (100% bacterial growth). Inhibitory assays for X. axonopodis pv. glycines were conducted by the same methodology with longer incubation time (48 h).

[2] = system: Staphylococcus aureus ATCC 29313; assay type: cell-based; settings: for MIC, Staphylococcus aureus: Mueller-Hinton broth, serial 2-fold dilutions, inoculum ~10^5 CFU/mL, highest 256 µg/mL, 12 h, OD600, NDA = Non-detectable activity; for 1/(log(MICs (mM)), Staphylococcus aureus): from MIC, 0 where no detectable activity
Description: (§1) MICs were determined using the M7-A6 protocol from the Clinical Laboratory Standards Institute (CLSI). Escherichia coli ATCC 25922, Pseudomonas aeruginosa ATCC 27853, Staphylococcus aureus ATCC 29313 were streaked in Mueller-Hinton agar, grown overnight at 37°C, transferred to Mueller-Hinton broth and incubated until readings at 600 nm reached the equivalent of 0.5 in the MacFarland scale. […]. Inhibitory assays for X. axonopodis pv. glycines were conducted by the same methodology with longer incubation time (48 h).

[3] = system: Pseudomonas aeruginosa ATCC 27853; assay type: cell-based; settings: for MIC, Pseudomonas aeruginosa: Mueller-Hinton broth, serial 2-fold dilutions, inoculum ~10^5 CFU/mL, highest 256 µg/mL, 12 h, OD600, NDA = Non-detectable activity; for 1/(log(MICs (mM)), Pseudomonas aeruginosa): from MIC, 0 where no detectable activity
Description: as §1

[4] = system: Escherichia coli ATCC 25922; assay type: cell-based; settings: for MIC, Escherichia coli: Mueller-Hinton broth, serial 2-fold dilutions, inoculum ~10^5 CFU/mL, highest 256 µg/mL, 12 h, OD600, NDA = Non-detectable activity; for 1/(log(MICs (mM)), Escherichia coli): from MIC, 0 where no detectable activity
Description: as §1

[5] = Far UV circular dichroism of peptides in buffer (MRE, α-helix percentage); assay type: physicochemical; settings: for [q]208 nm Buffer (Greenfield 69): Mean Residue Ellipticity at 208 nm; for [q]208 nm Buffer (Greenfield 69) / [q]222 nm Buffer (Chen 74): peptide in buffer, far UV CD; for [q]222 nm Buffer (Chen 74): Mean Residue Ellipticity at 222 nm; for % Helicity (Buffer) (Greenfield 69): from [q]208 nm, methodology of Greenfield et al. 1969; for % Helicity (Buffer) (Chen 74): from [q]222 nm, methodology of Chen et al. 1974
Description: Far UV CD spectra were acquired for peptides at 20 µM in buffer and in the presence of DMPC or 2∶1 DMPC:DMPG LUVs at 1 mol% peptide/phospholipids. Peptides presented different degrees of secondary structures upon LUVs addition. […] Following the addition of LUVs, some peptides changed conformation resulting in spectral features characteristic of α-helical structures.
Experiments were conducted on a Jasco-J810 spectropolarimeter (Jasco International Co., Japan). Spectra were acquired at room temperature from 194 to 260 nm as an average of 4 readings using a 0.1 cm path length cell, data pitch of 0.2 nm and a response time of 0.5 s. Data Scans of buffer and 2 mM DMPC and 2∶1 DMPC:DMPG LUVs solutions were acquired and subtracted from each peptide data. Peptides were scanned at a concentration of 20 µM in buffer and then 100 fold excess of DMPC and 2∶1 DMPC:DMPG LUVs were added, resulting in a molar ratio of 0.01 peptide/phospholipids. […] Proximity to equilibrium was verified by scanning peptides added with twice the LUVs concentration, approximately 4 mM.

AAAAAAAIKMLMDLVNERIMALNKKAKK [Q6TV81(25–52)]
MIC, Xanthomonas axonopodis pv. glycines [1]: <1 µM

FFFDTLKNLAGKVIGALT [Phes, reference compound]
MIC, Xanthomonas axonopodis pv. glycines [1]: 33 µM

FINKAGKLQSQLRTTVVAAAAFLDAFQKVA [O43312(33–62)]
MIC, Xanthomonas axonopodis pv. glycines [1]: 80 µM

FKALRALRLEDLRIPTSYIK [A3KLW0(117–136), putative IAP; fragment of Rubisco large chain, Anisophyllea pomifera]
1/(log(MICs (mM)), Xanthomonas axonopodis pv. glycines) [1]: 0 | MIC, Xanthomonas axonopodis pv. glycines [1]: NDA | MIC, Staphylococcus aureus [2]: NDA | 1/(log(MICs (mM)), Staphylococcus aureus) [2]: 0 | MIC, Pseudomonas aeruginosa [3]: NDA | 1/(log(MICs (mM)), Pseudomonas aeruginosa) [3]: 0 | MIC, Escherichia coli [4]: NDA | 1/(log(MICs (mM)), Escherichia coli) [4]: 0 | [q]208 nm Buffer (Greenfield 69) [5]: -11457 | [q]222 nm Buffer (Chen 74) [5]: -3442 | % Helicity (Buffer) (Greenfield 69) [5]: 25.7% | % Helicity (Buffer) (Chen 74) [5]: 9.8%

FKQFHFKDFNRAFGFMTRVALQAEKL [P61458(35–60)]
MIC, Xanthomonas axonopodis pv. glycines [1]: 40 µM

FLSLIPHAINAVSTLVHHF [PS -2, reference compound]
MIC, Xanthomonas axonopodis pv. glycines [1]: 121 µM

FVTNSKRLAEGIEKGVGNSILIKVN [Q8KG25(327–351), putative IAP; fragment of Enolase 2, Chlorobium tepidum]
1/(log(MICs (mM)), Xanthomonas axonopodis pv. glycines) [1]: 0 | MIC, Xanthomonas axonopodis pv. glycines [1]: NDA | MIC, Staphylococcus aureus [2]: NDA | 1/(log(MICs (mM)), Staphylococcus aureus) [2]: 0 | MIC, Pseudomonas aeruginosa [3]: NDA | 1/(log(MICs (mM)), Pseudomonas aeruginosa) [3]: 0 | MIC, Escherichia coli [4]: NDA | 1/(log(MICs (mM)), Escherichia coli) [4]: 0 | [q]208 nm Buffer (Greenfield 69) [5]: -7856 | [q]222 nm Buffer (Chen 74) [5]: -6669 | % Helicity (Buffer) (Greenfield 69) [5]: 13.3% | % Helicity (Buffer) (Chen 74) [5]: 18.9%

GHRGALKDWVQAAGGAVAAFDFTTKG [Q8RW88(70–95), putative IAP; fragment of Alpha-amylase, Citrus reticulata]
1/(log(MICs (mM)), Xanthomonas axonopodis pv. glycines) [1]: 0 | MIC, Xanthomonas axonopodis pv. glycines [1]: NDA | MIC, Staphylococcus aureus [2]: NDA | 1/(log(MICs (mM)), Staphylococcus aureus) [2]: 0 | MIC, Pseudomonas aeruginosa [3]: NDA | 1/(log(MICs (mM)), Pseudomonas aeruginosa) [3]: 0 | MIC, Escherichia coli [4]: NDA | 1/(log(MICs (mM)), Escherichia coli) [4]: 0 | [q]208 nm Buffer (Greenfield 69) [5]: -4005 | [q]222 nm Buffer (Chen 74) [5]: -6062 | % Helicity (Buffer) (Greenfield 69) [5]: 0.0168% | % Helicity (Buffer) (Chen 74) [5]: 17.2%

GIGDILKNLAKAAGKAALHAVGESL [HSP-4, reference compound]
MIC, Xanthomonas axonopodis pv. glycines [1]: <2 µM

GIGKFLHSAKKFGKAFVGEIMNS-NH2 [Magainin-2 amide, reference compound]
MIC, Xanthomonas axonopodis pv. glycines [1]: 13 µM

GKFHQIKKMFLSVGVKVTSLKRIQFGDF [A5LDU0(184–211)]
MIC, Xanthomonas axonopodis pv. glycines [1]: 10 µM

GLKDMIKNLAKEAAVKLAGAVINKFSPQPQ [Nattererin-1, reference compound]
MIC, Xanthomonas axonopodis pv. glycines [1]: <1 µM

GLNTLKKVIQGLHEVIKLVNNHA [Pseudin B, reference compound]
MIC, Xanthomonas axonopodis pv. glycines [1]: <2 µM

GLWSTIKQKGKEAAIAAAKAAGQAALGAL [DS 01, reference compound]
MIC, Xanthomonas axonopodis pv. glycines [1]: <1 µM

GVLDILKGAAKDLAGHVATKVINKI [Syphaxin, reference compound]
MIC, Xanthomonas axonopodis pv. glycines [1]: 25 µM

Gm0026x00785(77–103) (HKMDLHWYLRTLEEVVIRALQRFQFR)
concentration that inhibited the in vitro growth of X. axonopodis pv. glycines ([1]; in vitro growth): 10 µM

LAKRRVLTLLRQLRRVSPSS [Q7YRI0(9–28)]
MIC, Xanthomonas axonopodis pv. glycines [1]: <2 µM

LRPAILVRVKGKGL [Hyposin HA-6, reference compound]
MIC, Xanthomonas axonopodis pv. glycines [1]: 42 µM

LVQRFHAYLHKFREAFMNVGAAAAVEGTKAA [A4HW34(187–217)]
MIC, Xanthomonas axonopodis pv. glycines [1]: 37 µM

VWTTAMEKSSAANFSMSRNQRRSSLHSL [gb|AAD22970.1|(120–148), putative IAP; fragment of Trehalase 1 GMTRE1, Glycine max]
1/(log(MICs (mM)), Xanthomonas axonopodis pv. glycines) [1]: 0 | MIC, Xanthomonas axonopodis pv. glycines [1]: NDA | MIC, Staphylococcus aureus [2]: NDA | 1/(log(MICs (mM)), Staphylococcus aureus) [2]: 0 | MIC, Pseudomonas aeruginosa [3]: NDA | 1/(log(MICs (mM)), Pseudomonas aeruginosa) [3]: 0 | MIC, Escherichia coli [4]: NDA | 1/(log(MICs (mM)), Escherichia coli) [4]: 0

Source: publication PMC3461044, “Probing Protein Sequences as Sources for Encrypted Antimicrobial Peptides” (PLoS ONE, 2012)
